Measurements: patent US20100041632A1, “USES OF THE CARBOXY-AMIDO-TRIAZOLE COMPOUNDS AND SALTS THEREOF” (priority 2006, published 2010)

Legend:
Assay type in all cases: in vivo
[1] = test system: TNF-α; experiment: TNF-α levels in paw tissue and serum of adjuvant arthritis rat (ELISA); conditions: AA rats, day 29, ELISA
Description: Blood was collected from eve socket on day 29 and left in room temperature to allow coagulating. Then serum was separated by centrifugation at 3000 rpm for 10 min and kept in −20° C. After animals were sacrificed, the subcutaneous tissue of the right hind paw and that surrounding the tarsotibial joints was removed, broke into pieces, and placed in 5 ml normal saline (0.9%). The tissues were homogenized in a high speed homogenizer. Then the homogenate was centrifuged at 4° C. and 10,000 rpm for 15 min. The supernatants were collected and stored at −20° C. until further analysis.
IL-1β and TNF-α levels in paw tissue and serum were measured using specific rat ELISA kits according to the manufacturer's instructions.

[2] = test system: rats; experiment: Granulomatous tissue formation (implanted tampon)
Description: 44 rats (160 g) were randomly divided into 4 groups (11 rats/group). Animals were slightly anaesthetized by ether. After sterilization, the groin was cut bilaterally. A sterile tampon (50 mg) was implanted (sc). On the same day, the following treatments were administered: N.S. (i.p., control group), 0.067 mg/kg/day dexamethasone (i.p., positive control), 20 mg/kg/day CAI (p.o., dissolved in PEG 400, test group) and 0.067 mg/kg/day dexamethasone+20 mg/kg/day CAI (p.o., dissolved in PEG 400, combination group). After 7 days administration, the animals were sacrificed. The cotton was removed. The granulomatous tissue was dried at 60° C. oven for 12 hr and weighed. Increment in the dry weight of the tissue was taken as measure of granuloma formation. The Increment was adjusted for respective body weight, and the mean value for each group was calculated.

[3] = test system: Kunming mice; experiment: Hot plate test (analgesic effect)
Description: Kunming mice (18-22 g, female) were randomly divided into 4 groups with 20 animals per group.
Control group with dissolvent: 10 μl PEG400 was administered (ig) twice with the interval of 24 hours. The pain intensity test was carried out 8 hours after the second administration. 200 μl N.S. was injected (sc) 5 minutes before the test.
Morphine/PEG400 group: 10 μl PEG400 was administered (ig) twice with the interval of 24 hours. The pain intensity test was carried out 8 hours after the second administration. Morphine (2 mg/kg body weight) was injected (sc) 5 minutes before the test.
CAI/N.S. group: CAI (20 mg/kg body weight, 2 mg/ml) was administered (ig) twice with the interval of 24 hours. The pain intensity test was carried out 8 hours after the second administration. 200 μl N.S. was injected (sc) 5 minutes before the test.
The pain intensity test was carried out 8 hours after the second administration. Morphine (2 mg/kg body weight) was injected (sc) 5 minutes before the test.
The mice were placed onto a hot plate (53±0.5° C.) and the latency periods (second) of hopping responses were recorded as the pain threshold index.

[4] = test system: Kunming mice; experiment: Croton oil-induced ear edema mouse model
Description: Male Kunming mice, weighted 18-22 g, were randomly divided to the following experiment groups, 20 mice/group:
Negative control: normal saline was injected (ig), 0.1 ml/10 g/day for 3 consecutive days.
Vehicle control: PEG400 was injected (ig), […] for 3 consecutive days.
Positive control: Dexamethasone (0.2 mg/ml) was injected (ip), 0.1 ml/10 g/day for 3 consecutive days.
Test group: CAI or its analogs (2 mg/ml, analogs are as described in example 5) was administered (ig), 0.1 ml/10 g/day for 3 consecutive days.
8 hours after the last administration, 20 μl of croton oil solution (2%) was applied to the right ear of each mouse. The left ear remained untreated as control. The animals were sacrificed 4 hours later, and a piece of tissue was punched from the same position of the treated and untreated ear. The tissues were weighed on a 0.1 mg balance. The difference in weight between the two pieces of tissue of each mouse was taken as a measure of swelling intensity.

NC(=O)c1nnn(Cc2cc(Cl)c(C(=O)c3ccc(Cl)cc3)c(Cl)c2)c1N [CAI, 5-amino-1-[3,5-dichloro-4-(4-chlorobenzoyl chloride)benzyl]-1H-1,2,3-triazole-4-carboxamide]
TNF-α levels in paw tissue and serum (in words) [1]: significantly reduced | granulomatous tissue:bady weight ratio (mean ± std) ([2]; 7 days, CAI 20 mg/kg/day p.o., dexamethasone 0.067 mg/kg/day i.p.): 0.060 ± 0.00479 | Effect on granulomatous tissue formation (in words) ([2]; two-way ANOVA): potent in inhibiting granulomatous tissue formation | Pain threshold (sec, mean ± std) ([3]; hot plate 53±0.5° C., latency of hopping response, CAI 20 mg/kg ig twice, morphine 2 mg/kg sc): 19.9 ± 6.2 s | Analgesic effect in hot plate test (in words) ([3]; two-factor ANOVA): neither have obvious analgesic effect alone | Swelling intensity (mg) mean ± std ([4]; ear weight difference 4 hours after 2% croton oil, CAI/analogs 2 mg/ml ig, dexamethasone 0.2 mg/ml ip, 0.1 ml/10 g/day, 3 days): 7.8 ± 0.2 mg | Anti-inflammatory effect in ear edema model (in words) ([4]; mouse, in vivo): obvious anti-inflammatory effects
